Laboratory results from patent US8623338B2, “Methionine-derived peptidomimetics and their use in the protection of mitochondria of cutaneous cells” (Exsymol S.A.M., priority 2010, dated 2014).
Several values for one entry are separate records, joined by “and”; a condition that tells them apart may be missing. Equal entries are not always repeated. Where two headings read alike, the source gives them in different places. Marks after values point to notes of the source that are not given here.

Key:
[1] = reference antioxidants, literature footnotes; cited from earlier work
[2] = test system: O2°− superoxide anion present in mitochondria of V79 cells; assay: Mitochondrial oxidative stress in V79 cells under H2O2 stress (MitoSOX Red, flux cytometry); assay type: cell-based, hamster; settings: for % of positive cells to MitoSOX: V79 cells
Excerpt: (§1) Test 3: Evidence of the Protective Effect of the N-Acety-(DL)-Methionyl-4-(Methylthio)Propylamine Compound on the Mitochondrial Oxidative Stress and on the Mitochondrial Biogenesis
(§2) Principles: measures of the mitochondrial intracellular oxidative stress and detection of the mitochondrial biogenesis were achieved by flux cytometry with the following fluorophore markers: • the “MitoSOX™ Red” red fluorescent probe below-designed “MitoSOX” (detection to λ=580 nm; supplier: Invitrogen) allows to specifically detect the O2°^− superoxide anion present in mitochondria (due to its strong affinity for mitochondria), • the “MitoTracker® Green FM” green fluorescent probe below-designed “Mitogreen” (detection to λ=516 nm; supplier: Invitrogen) allows to quantify the mitochondrial mass (or related number of mitochondria per cell).
(§3) Experimentally, tests were achieved on a fibroblastic line of hamster “V79”, maintained by lining out in a “EMEM” complete culture medium (with 10% foetal calf serum) in humid atmosphere at 37° C. and 5% CO2. The V79 cells are seeded then incubated 24 hours in […] at the rate of 2.5·10^5 cells per well in 3 ml of the same culture medium, then exposed 1h30 to a stress with the addition of a medium containing hydrogen peroxide H2O2 (15 ppm).
(§4) After trypsination, the cells are incubated at 37° C. for 15 minutes in 1 ml of “EMEM” complete culture medium and containing the above-mentioned markers “MitoSOX” (at the final concentration of 5 μM) and “Mitogreen” (at the final concentration of 200 nM), for respective detection: • of the mitochondrial oxidative stress (expressed in % of positive cells) • of the mitochondrial mass per cell (expressed in % of MFI (“Mean Fluorescence Intensity”) in relation to the control).
(§5) The results, expressed as the average values obtained from four independent experiments, are presented in the hereafter tables 3a and 3b, in comparison with those obtained for the N-acetyl-cysteine chosen as a reference protective agent at the concentration of 5 mM.

[3] = test system: mitochondrial mass of V79 cells; assay: Mitochondrial mass / biogenesis in V79 cells under H2O2 stress (MitoTracker Green FM, flux cytometry); assay type: cell-based, hamster; settings: Mitogreen
Excerpt: as §1, §2, §3, §4, §5

[4] = test system: cell line of fibroblasts called V79; assay: Restoration of cellular ATP levels in V79 fibroblasts exposed to H2O2 stress (luminometry, ATPlite 1step); assay type: cell-based, hamster; settings: V79 cells
Description: Test 1: Evidence of the Ability of the Methionine-derived Peptidomimetics to Restore the Cellular ATP Levels on Cells Exposed to a Stress (H2O2):
The experimental study has been carried out on a cell line of fibroblasts called V79, and seeded in a 96 well plate at the rate of 5000 cells per well in 100 μl of culture medium (containing 10% foetal calf serum). This one is then replaced in each of the well by 100 μl of medium containing some peptidomimetics according to the invention, at the concentration of 7.5 mM or 10 mM. After 2 hours of incubation, the medium is removed from all wells. Then the cells are submitted to a stress with the addition of a medium containing 50 μl of hydrogen peroxide H2O2 (4 ppm). After 8 additional hours of incubation, the ATP average concentration is measured by luminometry in presence of luciferin (“ATPlite lstep” kit) and through a standard curve prepared from highly purified ATP.
The results, expressed as the average values obtained from three independent experiments, are presented in the hereafter table 1, in comparison with a control.

[5] = Percutaneous absorption on human skin explants (Frantz-type cells, OECD guideline 428); assay type: in vitro ADME; settings: 1% solution, 24 hours contact
Excerpt: Test 2: Percutaneous Absorption Study of the Methionine-derived Peptidomimetics on Human Skin Explants: The values of permeability coefficient (Kp) were obtained from a previously frozen abdominal […] human skin, in accordance with protocol described in the OECD guidelines n° 428 on cutaneous absorption studies. Experimentally, the skin explants were placed on Frantz-type cells in passive diffusion, piloted by the “MicroettePlus Hanson Research” system. The tested products are applied in a non-occlusive way. After that skin was laid on the cells, 500 μl of peptidomimetic according to the invention (1% solution) were placed in each of the cells and for a total contact time of 24 hours. At the end of these ones, the remaining product is sampled and the skin surface rinsed for extraction and for measure of the absorbed quantity, then for the determination of the permeability coefficient expressed under logarithmic type (Log Kp).

[6] = Hydroxyl radical scavenging speed constant (deoxyribose / thiobarbituric acid method); settings: pH 7.4, 37° C., one hour
Excerpt: Test 5: Evidence of the Antioxidant Effect of the N-Acety-(DL)-Methionyl-4-(Methylthio)Propylamine and N-Propionyl-(DL)-Methionyl-4-(Methylthio)Propylamine on the Hydroxyl Radical
The method, described by Rehman A. and coll. (British J. Pharmacol. (1997), vol. 122, pp. 1702-1706), is used for the determination of the scavenging speed constant of the hydroxyl radical [Ks (OH°)], the peptidomimetic according to the invention being compared to two reference antioxidants, mannitol and ascorbic acid (vitamin C).
Experimentally, the tested substance is dissolved in a buffered medium of pH 7.4 to which is added a OH° generating system (ascorbate/iron/EDTA) in presence of deoxyribose. After one hour of incubation at 37° C., the reaction is stopped with the help of trichloroacetic acid. After colorimetric visualization with thiobarbituric acid, the absorbance is measured at 532 nm for different concentrations, then the relative Ks (OH°) is calculated for each of the substances.

[7] = Whitening test of pyrogallol red by peroxynitrite ions; settings: inhibition of pyrogallol red (50 μM) oxidation by ONOO− (25 μM), pH 7.0, 5 minutes
Excerpt: Test 6: Evidence of the Antioxidant Effect of the […])Propylamine Compound on Peroxynitrite Ions The method so-called “whitening test of the pyrogallol red (PR)”, described by Nath V. B. and coll.

[8] = literature value (Mitragotri 2003); cited from earlier work

## O=C1O[C@H]([C@@H](O)CO)C(O)=C1O [ascorbic acid]
[1]
  Ks(OH°): 10.1** 10^9 · M^−1 · s^−1

## CC(=O)N[C@@H](CS)C(=O)O [N-acetyl-cysteine, reference compound]
[2]; 5 ppm + H2O2 (15 ppm, 1h30)
  % of positive cells to MitoSOX: 15.2%
[3]; 5 ppm + H2O2 (15 ppm, 1h30)
  MFI (% control): 74.4 % control

## CCC(=O)NC(CCSC)C(=O)NCCCSC (stereo not drawn) [N-propionyl-(DL)-methionyl-4-(methylthio)propylamine]
[4]; compound 10 mM + H2O2 (4 ppm), 8 h
  ATP: 449 nM
[4]; compound 10 mM, no H2O2
  ATP: 528 nM
[5]
  Kp: 9.7e-05 cm/h
[6]
  Ks(OH°): 5.7 10^9 · M^−1 · s^−1

## CSCCCNC(=O)C(CCSC)NC(C)=O (stereo not drawn) [N-acetyl-(DL)-methionyl-4-(methylthio)propylamine]
[4]; compound 7.5 mM + H2O2 (4 ppm), 8 h
  ATP: 483 nM
[4]; compound 7.5 mM, no H2O2
  ATP: 591 nM
[5]
  Kp: 0.000109 cm/h
[2]; V79 cells + H2O2, in words, both tables 3a and 3b
  effect on intramitochondrial stress (MitoSOX and Mitogreen): ability to reduce the effect of intramitochondrial stress
[2]; 7.5 mM + H2O2 (15 ppm, 1h30)
  % of positive cells to MitoSOX: 40.3%
[3]; 7.5 mM + H2O2 (15 ppm, 1h30)
  MFI (% control): 123.5 % control
[3]; 10 mM + H2O2 (15 ppm, 1h30)
  MFI (% control): 127.5 % control
[6]
  Ks(OH°): 6.1 10^9 · M^−1 · s^−1
[7]
  IC50: 1010 µM

## Cn1c(=O)c2c(ncn2C)n(C)c1=O [caffeine]
[8]
  Kp: 1 · 10^−4** cm · h^−1

## Cc1c(C)c2c(c(C)c1O)CCC(C)(C(=O)O)O2 (stereo not shown) [Trolox, carboxylic 2-(6-hydroxy-2,5,7,8-tetramethylchromane) acid, reference compound]
[7]
  IC50: 83 µM

## OC[C@@H](O)[C@@H](O)[C@H](O)[C@H](O)CO [mannitol]
[1]
  Ks(OH°): 1.6 10^9 · M^−1 · s^−1 and 1.9 10^9 · M^−1 · s^−1
